In data set [1] the test system is cells with inhibited complex I. In words: Screening assay (1): enhancement of mitochondrial energy producing function in cells with inhibited respiratory complex I (high-resolution respirometry). Further details: key: graded either +, ++ or +++ in increasing order of potency; graded either +, ++ or +++ in increasing order of potency; graded either +, ++ or +++ in increasing order of potency; (+): Brackets [( )] indicate an intermediate effect; (++): Brackets [( )] indicate an intermediate effect; (+++) is between ++ and +++. It counts as cell-based, human. The conditions noted are these: increase in mitochondrial oxygen consumption in cells with inhibited complex I. As for the experimental part:
(§1) Measurement of mitochondrial respiration is performed in a high-resolution oxygraph (Oxygraph-2k, Oroboros Instruments, Innsbruck, Austria) at a constant temperature of 37° C. Isolated human platelets, white blood cells, fibroblasts, human heart muscle fibers or other cell types containing live mitochondria are suspended in a 2 mL glass chamber at a concentration sufficient to yield oxygen consumption in the medium of ≥10 pmol O2 s^−1 mL^−1.
(1) Assay for Enhancement of Mitochondrial Energy Producing Function in Cells with Inhibited Respiratory Complex I
Cells are placed in a buffer containing 110 mM sucrose, HEPES 20 mM, taurine 20 mM, K-lactobionate 60 mM, MgCl2 3 mM, KH2PO4 10 mM, EGTA 0.5 mM, BSA 1 g/l, pH 7.1. […] Compounds dissolved in DMSO are titrated in a range of 10 μM to 10 mM final concentration. Subsequently, cell membranes are permeabilised with digitonin (1 mg/1*10^6 plt) to allow entry of extracellularly released energy substrate or cell impermeable energy substrates. After stabilized respiration, Succinate 10 mM is added as a reference to enable respiration downstream of complex I. After the respiration stabilized the experiment is terminated by addition of Antimycin at final concentration 1 μg/mL and any residual non-mitochondrial oxygen consumption is measured. An increase in respiration rate in the described protocol is tightly coupled to ATP synthesis by oxidative phosphorylation unless cells are uncoupled (i.e. proton leak without production of ATP). Uncoupling is tested for by addition of the ATP synthase inhibitor oligomycin (1-2 μg mL^−1) in a protocol 3 where the extent of uncoupling corresponds to the respiratory rate following oligomycin addition.

Data set [2] concerns intact cells. Kind of data set: Screening assay (2): enhancement and inhibition of mitochondrial energy producing function in intact cells (FCCP uncoupled). In kind it is cell-based, human. Further details: key to Convergent (FCCP): graded either +, ++ or +++ in increasing order of potency; graded either +, ++ or +++ in increasing order of potency; graded either +, ++ or +++ in increasing order of potency; (+): Brackets [( )] indicate an intermediate effect; (++): Brackets [( )] indicate an intermediate effect; (+++) is between ++ and +++. Conditions: for Convergent (FCCP): increase in mitochondrial oxygen consumption induced by the compound, screening assay 2 (uncoupled conditions); for Toxicity: lowest concentration during compound titration at which a decrease in oxygen consumption is seen, screening assay 2. On the procedure: as §1
(2) Assay for Enhancement and Inhibition of Mitochondrial Energy Producing Function in Intact Cells
In the second protocol the same buffer is used as described above. After basal respiration is established, the mitochondrial uncoupler FCCP is added at a concentration of 2 nM to increase metabolic demand.

In data set [3] the test system is intact cells. Kind of data set: Screening assay (3): assay to assess uncoupling in intact cells. It counts as cell-based, human. Also noted: key: graded either +, ++ or +++ in increasing order of potency; graded either +, ++ or +++ in increasing order of potency; graded either +, ++ or +++ in increasing order of potency; (+): Brackets [( )] indicate an intermediate effect; (++): Brackets [( )] indicate an intermediate effect; (+++) is between ++ and +++. Conditions: for Convergent (Routine): increase in mitochondrial oxygen consumption induced by the compound; for Uncoupling: level of oxygen consumption after addition of oligomycin. As for the experimental part:
Measurement of mitochondrial respiration is performed in a high-resolution oxygraph (Oxygraph-2k, Oroboros Instruments, Innsbruck, Austria) at a constant temperature of 37° C. […] In the third protocol, the same buffer as described above is used. […] Subsequently, the ATP-synthase-inhibitor Oligomycin is added. A reduction in respiration is a measure of how much of the oxygen consumption that is coupled to ATP synthesis. No, or only a slight, reduction indicate that the compound is inducing a proton leak over the inner mitochondrial membrane. The uncoupler FCCP is then titrated to induce maximum uncoupled respiration. […] The experiment is terminated by the addition of 1 μg/mL of the complex III inhibitor Antimycin to measure non-mitochondrial oxygen consumption.

The next data set concerns Intact human blood cells. In words: Screening assay (4): enhancement of mitochondrial energy producing function in cells with inhibited respiratory complex I in human plasma. In kind it is cell-based. Also noted: key: graded either +, ++ or +++ in increasing order of potency; graded either +, ++ or +++ in increasing order of potency; graded either +, ++ or +++ in increasing order of potency; (+): Brackets [( )] indicate an intermediate effect; (++): Brackets [( )] indicate an intermediate effect; (+++) is between ++ and +++. The conditions noted are these: increase in mitochondrial oxygen consumption in cells with inhibited complex I incubated in human plasma. On the procedure:
Measurement of mitochondrial respiration is performed in a high-resolution oxygraph (Oxygraph-2k, Oroboros Instruments, Innsbruck, Austria) at a constant temperature of 37° C. […] Intact human blood cells are incubated in plasma from the same donor. […] The experiment is terminated by addition of Antimycin at final concentration 1 μg/mL and any residual non-mitochondrial oxygen consumption is measured.

In data set [4] the test system is intact cells. In words: Assays exemplified in the patent (not specified further) for known succinate esters. In kind it is cell-based. The text has this: I. Assays for Evaluating Enhancement and Inhibition of Mitochondrial Energy Producing Function in Intact Cells
Four Typical Evaluation Protocols in Intact Cells are Utilized.

Data set [5] has as its system intact human platelets. In words: Intervention on metformin- or rotenone-induced lactate production with cell-permeable succinate prodrugs. It counts as cell-based. The conditions noted are these: for effect on rotenone-induced lactate production: 2 μM rotenone, repeated additions of 250 μM; for effect on lactate production of metformin-incubated cells: 10 mM metformin, additions of 250 μM each 30 minutes. On the procedure:
Lactate production of intact human platelets was determined in PBS containing 10 mM glucose.
(§2) Lactate levels are determined every 2 h (or more frequent eg every 30 min) using the Lactate Pro™ 2 blood lactate test meter (Arkray, Alere AB, Lidingö, Sweden) or similar types of measurements. Incubation is performed at 37° C. pH is measured at start, after 4 and after 8 h (or more frequently) of incubation using a Standard pH Meter, e.g. PHM210 (Radiometer, Copenhagen, Denmark). Drug candidates are added to the assay from start or following 30-60 min at concentrations within the range 10 μM-5 mM. […] In order to evaluate the specificity of the drug candidate, it is also tested in combination with a down-stream inhibitor of respiration such as the complex III inhibitor Antimycin at 1 μg/mL, which should abolish the effect of the drug candidate and restore the production of lactate. The use of antimycin is therefore also a control for undue effects of drug candidates on the lactate producing ability of the cells used in the assay. (See e.g. FIGS. 9, 10 and 11).
Lactate levels were measured in intervals of 30 min with the onset of the experiment. Additionally, pH was measured prior to the first addition of vehicle (dmso, control), the different cell-permeable succinate prodrugs (NV118, NV189, NV241) or succinate and at the end of the experiment.

Data set [6] concerns intact human platelets. In words: Effect of metformin and phenformin on lactate production and pH of intact human platelets. It counts as cell-based. The conditions noted are these: metformin 1 and 10 mM, phenformin 0.5 mM, rotenone 2 μM. As for the experimental part: as §2
Incubation was performed at 37° C. at a stirrer speed of 750 rpm, and pH was measured at start, after 4 and after 8 h of incubation (n=4) using a PHM210 Standard pH Meter (Radiometer, Copenhagen, Denmark).

In data set [7] the test system is permeabilized human platelets.
Protocol: (§3) Real-time respirometric measurements were performed using high-resolution oxygraphs (Oxygraph-2k, Oroboros Instruments, Innsbruck, Austria). The experimental conditions during the measurements were the following: 37° C., 2 mL active chamber volume and 750 rpm stirrer speed. […] For data recording, DatLab software version 4 and 5 were used (Oroboros Instruments, Innsbruck, Austria). Settings, daily calibration and instrumental background corrections were conducted according to the manufacturer's instructions. […] Lactate production of intact human platelets was determined in PBS containing 10 mM glucose. All measurements were performed at a platelet concentration of 200×10^6 cells per mL or a PBMC concentration of 5×10^6 cells per mL.
(§4) All respiratory, lactate and pH data are expressed as mean±SEM. Ratios are plotted as individuals and means. One-way ANOVA was used for one-factor comparison of three or more groups (concentration of drugs) and two-way mixed model ANOVA was used for two-factor comparison (time and concentration of drugs/treatment) of three or more groups. Post-hoc tests to compensate for multiple comparisons were done according to Holm-Sidak. Correlations were expressed as r^2 and P-values. […]
(§5) In order to investigate the specific target of biguanide toxicity, a protocol was applied using digitonin permeabilization of the blood cells and sequential additions of respiratory complex-specific substrates and inhibitors in MiR05 medium. […] Maximal uncoupled respiratory electron transport system capacity supported by convergent input through complex I and II (ETSCI+II) was evaluated by subsequent titration with the protonophore carbonyl-cyanide p-(trifluoromethoxy) phenylhydrazone (FCCP). […] Complex IV activity was calculated by subtracting the sodium azide value from the TMPD value. With exception of complex IV activity, all respiratory states were measured at steady-state and corrected for ROX. Complex IV activity was measured after ROX determination and not at steady-state.
Data set [8] relates to permeabilized human platelets. In words: cells. Conditions: Platelet, read-out: IC50 for inhibition of OXPHOSCI
Protocol: as §3, §4, §5
The conditions of data set [9]: patients; cited from earlier work.

Data on 15 molecules can be found in patent US12310940B2, “Cell-permeable succinate compounds” (ABLIVA AB, priority 2014, dated 2025).

pIC50: −log10 of the molar value. Entries after “also recorded” stand apart in the source; their conditions may differ.

In general, pIC50 refers to the IC50 on a negative log10 scale, so that one unit is a factor of ten.

As to `CCC(=O)N[C@@H](CSC(=O)CCC(=O)O)C(=O)O` [01-041, (R)-4-(2-carboxy-2-propionamidoethylthio)-4-oxobutanoic acid], the CII entry in [1] is recorded as “++”. Moreover, in the data set with intact cells [2], the “Convergent (FCCP)” value is listed as “+++” and the Toxicity amounted to 5 mM. Also, in the data set on intact cells [3], the “Convergent (Routine)” value is on record as “+” and the Uncoupling result was “(+)”. Further, the “CII (plasma)” value in the data set with Intact human blood cells is recorded as “+”.
For `CC(=O)NCCSC(=O)CCC(=O)O` [01-108, 4-(2-acetamidoethylthio)-4-oxobutanoic acid], the CII entry in [1] was “(++)”. In addition, in the data set on intact cells [2], the “Convergent (FCCP)” value was “++” and the Toxicity is recorded as 10 mM. Moreover, in the data set on intact cells [3], the “Convergent (Routine)” value is listed as “++” and the Uncoupling entry was “+”. Besides, the “CII (plasma)” value in the data set on Intact human blood cells was “(+)”.
Take `CCC(=O)NCCSC(=O)CCC(=O)O` [01-114, 4-oxo-4-(2-propionamidoethylthio)butanoic acid]: the CII result in [1] was “++”. Also, in the data set on intact cells [2], the “Convergent (FCCP)” value was “++” and the Toxicity came to 10 mM. Further, in the data set with intact cells [3], the “Convergent (Routine)” value is “+++” and the Uncoupling result is “(+)”. In the data set on Intact human blood cells, the “CII (plasma)” value is reported as “+”.
Consider `CCC(=O)N[C@@H](CSC(=O)CCC(=O)SC[C@H](NC(=O)CC)C(=O)N(CC)CC)C(=O)N(CC)CC` [01-185, S,S-bis((R)-3-(diethylamino)-3-oxo-2-propionamidopropyl) butanebis(thioate)], for which the CII result in [1] is recorded as “+”. Moreover, in the data set with intact cells [2], the “Convergent (FCCP)” value is reported as “+” and the Toxicity turned out to be 2 mM. Also, in the data set on intact cells [3], the “Convergent (Routine)” value is recorded as “(+)” and the Uncoupling entry is recorded as “(+)”. In the data set on Intact human blood cells, the “CII (plasma)” value is “+”.
Consider `CC(=O)NCC(C)(C)SC(=O)CCC(=O)O` [01-188, 4-(1-acetamido-2-methylpropan-2-ylthio)-4-oxobutanoic acid], for which, in data set [1], the CII result is listed as “+”. Further, in the data set with intact cells [2], the “Convergent (FCCP)” value is reported as “+++” and the Toxicity was found to be 5 mM. In the data set on intact cells [3], the “Convergent (Routine)” value is “+++” and the Uncoupling entry is “(+)”. Moreover, the “CII (plasma)” value in the data set with Intact human blood cells was “+”.
For `CCN(CC)C(=O)COCCSC(=O)CCC(=O)O` [01-193, 4-(2-(2-(diethylamino)-2-oxoethoxy)ethylthio)-4-oxobutanoic acid], the CII result in data set [1] was “+”. Also, in the data set with intact cells [2], the “Convergent (FCCP)” value is reported as “+” and the Toxicity was 5 mM. For the same molecule, in the data set with intact cells [3], the “Convergent (Routine)” value is given as “(++)” and the Uncoupling result is “+”. Also, the “CII (plasma)” value in the data set with Intact human blood cells is recorded as “(+)”.
Consider `CCC(=O)N[C@@H](CSC(=O)CCC(=O)SC[C@H](NC(=O)CC)C(=O)OC)C(=O)OC` [01-205, (R)-methyl 3-(4-((R)-3-methoxy-3-oxo-2-propionamidopropylthio)-4-oxobutanoylthio)-2-propionamidopropanoate], for which the CII result in data set [1] is given as “++”. Moreover, in the data set with intact cells [2], the “Convergent (FCCP)” value was “++” and the Toxicity was determined as 5 mM. Also, in the data set on intact cells [3], the “Convergent (Routine)” value is recorded as “+++” and the Uncoupling entry was “(+)”. Further, the “CII (plasma)” value in the data set with Intact human blood cells is given as “+”.
Consider `CCOC(=O)CCC(=O)OCC` [Diethyl succinate], for which the “activity in the assays exemplified” value with intact cells [4] was “inactive”.
On to `CC(=O)OCOC(=O)CCC(=O)OCOC(C)=O` [NV118], for which, in the data set with intact human platelets [5], the “effect on rotenone-induced lactate production” value was “attenuated” and the “effect on lactate production of metformin-incubated cells” value (“effect on lactate production” below) is “significantly decreased”.
`CC(=O)OC(C)OC(=O)CCC(=O)OC(C)OC(C)=O` (stereo not drawn) [NV189]: in the data set with intact human platelets [5], the “effect on rotenone-induced lactate production” value was “attenuated; also recorded: brought back to normal” and the “effect on lactate production” value is recorded as “significantly decreased”.
For `CC(=O)OCOC(=O)CCC(=O)OC(C)OC(C)=O` (stereo not drawn) [NV241] the same measures were “attenuated” and “significantly decreased”.
Turning to `COC(=O)CCC(=O)OC` [dimethyl succinate], the “activity in the assays exemplified” value in the data set with intact cells [4] was “inactive”.
The same measure, in the same setting: the same measure for `COC(=O)CCC(=O)O` [monomethyl succinate]: “inactive”.
`[H]/N=C(/N)N/C(=N/[H])NCCc1ccccc1` [phenformin]: the “lactate produced over 8 h of treatment compared to control” value with intact human platelets [6] is “significantly more lactate”. Besides, in data set [7], the “effect on OXPHOSCI, OXPHOSCI+II and ETSCI+II” value was “inhibited”; the “potency of inhibition of OXPHOSCI relative to metformin” value was 20 fold. The pIC50 in [8] was 4.24. Also, the “incidence of lactic acidosis” value in [9] is 4 cases per 10000 treatment-years.
Regarding `O=C(O)CCC(=O)O` [succinate], the “effect on lactate production” value in the data set on intact human platelets [5] is reported as “did not reduce; also recorded: did not change this”.
